The record followed here is patent US9353107B2 (Aurigene Discovery Technologies Limited, priority 2012, dated 2016).

A value given as a limit tells only on which side of the number the result lay.

The assay has as its target T1, recombinant human ALK enzyme (ALK WT) (Homo sapiens, UniProt Q9UM73).
T1 construct: purchased Carna Biosciences 08-518
Nature of the assay: ALK WT cell free enzymatic assay (TR-FRET). In kind it is biochemical. Conditions: 1 μM ATP; for IC50: 10 point dose response; for inhibition at 0.1 µM: compound at 100 nM; for inhibition at 0.1 µM / inhibition at 1 µM: 30 min pre-incubation; for inhibition at 1 µM: compound at 1 μM. Summed up: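 Read-out is TR-FRET (665 nm/615 nm ratio) using an Eu-labeled anti-phosphotyrosine antibody. Compound is pre-incubated 30 min with recombinant human ALK, then reacted 30 min with 1 μM ATP and 40 nM Poly GT substrate. Values are percent inhibition at 100 nM and 1 μM, plus IC50 from 10-point variable-slope regression.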

The term IC50 denotes the concentration needed to halve the response being measured. One may read the inhibition as the percentage by which the read-out fell short of the control.

T1 sequence (Q9UM73 1058-1620 limits assumed): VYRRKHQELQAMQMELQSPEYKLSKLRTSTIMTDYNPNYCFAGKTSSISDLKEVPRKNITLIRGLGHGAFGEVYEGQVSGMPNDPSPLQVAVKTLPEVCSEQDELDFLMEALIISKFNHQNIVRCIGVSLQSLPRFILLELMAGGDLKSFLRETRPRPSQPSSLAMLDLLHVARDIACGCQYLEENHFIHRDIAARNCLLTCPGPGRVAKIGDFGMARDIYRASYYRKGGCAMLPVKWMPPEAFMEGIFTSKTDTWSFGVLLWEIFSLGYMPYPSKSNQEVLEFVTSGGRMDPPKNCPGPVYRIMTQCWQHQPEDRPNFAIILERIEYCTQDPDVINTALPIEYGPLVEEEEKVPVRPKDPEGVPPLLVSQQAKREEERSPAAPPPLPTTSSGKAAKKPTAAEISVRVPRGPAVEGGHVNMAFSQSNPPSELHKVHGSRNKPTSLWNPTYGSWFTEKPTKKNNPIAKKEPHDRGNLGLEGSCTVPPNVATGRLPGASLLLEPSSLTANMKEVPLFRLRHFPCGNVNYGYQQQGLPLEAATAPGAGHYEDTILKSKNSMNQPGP

For `Fc1cc(-c2cnc3[nH]cc(-c4ccn(CCc5ccccc5)n4)c3c2)ccc1C1CCNCC1` [Example 168, 5-(3-fluoro-4-(piperidin-4-yl)phenyl)-3-(1-phenethyl-1H-pyrazol-3-yl)-1H-pyrrolo[2,3-b]pyridine], the IC50 was more than 250 nM, the inhibition at 0.1 µM came out at 23% and the inhibition at 1 µM was 71%.

Consider `Fc1cc(F)cc(Cn2cc(-c3c[nH]c4ncc(-c5ccc(C6CCNCC6)c(F)c5)cc34)cn2)c1` [Example 169, 3-(1-(3,5-difluorobenzyl)-1H-pyrazol-4-yl)-5-(3-fluoro-4-(piperidin-4-yl)phenyl)-1H-pyrrolo[2,3-b]pyridine], for which the IC50 was less than 50 nM, the inhibition at 0.1 µM turned out to be 99% and the inhibition at 1 µM was 100%.

In the case of `CN1CCC(c2ccc(-c3cnc4[nH]cc(-c5cnn(Cc6cccc(F)c6)c5)c4c3)cc2F)CC1` [Example 170, 5-(3-fluoro-4-(1-methylpiperidin-4-yl)phenyl)-3-(1-(3-fluorobenzyl)-1H-pyrazol-4-yl)-1H-pyrrolo[2,3-b]pyridine], the half-maximal inhibitory concentration (IC50) was less than 50 nM, the inhibition at 0.1 µM was 98% and the inhibition at 1 µM was 100%.

Turning to `c1cc(Cn2cc(-c3c[nH]c4ncc(-c5ccc(C6CCNCC6)cc5)cc34)cn2)ccn1` [Example 171, 5-(4-(piperidin-4-yl)phenyl)-3-(1-(pyridin-4-ylmethyl)-1H-pyrazol-4-yl)-1H-pyrrolo[2,3-b]pyridine], the half-inhibitory concentration (IC50) was 50 to 250 nM, the inhibition at 0.1 µM turned out to be 41% and the inhibition at 1 µM turned out to be 88%.

As for `Fc1cccc(Cn2cc(-c3c[nH]c4ncc(-c5ccc(N6CCNCC6)c(F)c5)cc34)cn2)c1` [Example 172, 5-(3-fluoro-4-(piperazin-1-yl)phenyl)-3-(1-(3-fluorobenzyl)-1H-pyrazol-4-yl)-1H-pyrrolo[2,3-b]pyridine], the IC50 was less than 50 nM, the inhibition at 0.1 µM came out at 99% and the inhibition at 1 µM turned out to be 100%.

On to `Fc1cccc(Cn2cc(-c3c[nH]c4ncc(-c5cnc(N6CCNCC6)c(F)c5)cc34)cn2)c1` [Example 173, 5-(5-fluoro-6-(piperazin-1-yl)pyridin-3-yl)-3-(1-(3-fluorobenzyl)-1H-pyrazol-4-yl)-1H-pyrrolo[2,3-b]pyridine], for which the IC50 is less than 50 nM, the inhibition at 0.1 µM amounted to 92% and the inhibition at 1 µM is 98%.

`COc1cc(-c2cnc3[nH]cc(-c4cnn(Cc5cccc(F)c5)c4)c3c2)cnc1N1CCNCC1` [Example 174, 3-(1-(3-fluorobenzyl)-1H-pyrazol-4-yl)-5-(5-methoxy-6-(piperazin-1-yl)pyridin-3-yl)-1H-pyrrolo[2,3-b]pyridine]: the IC50 is less than 50 nM, the inhibition at 0.1 µM is 96% and the inhibition at 1 µM was 100%.

As for `Cc1nn(Cc2cccc(F)c2)c(C)c1-c1c[nH]c2ncc(-c3ccc(C4CCNCC4)c(F)c3)cc12` [Example 175, 5-(3-fluoro-4-(piperidin-4-yl)phenyl)-3-(1-(3-fluorobenzyl)-3,5-dimethyl-1H-pyrazol-4-yl)-1H-pyrrolo[2,3-b]pyridine], the IC50 is less than 50 nM, the inhibition at 0.1 µM was found to be 96% and the inhibition at 1 µM came out at 100%.

As to `CS(=O)(=O)Nc1cc(-c2cnc3[nH]cc(-c4ccn(Cc5cc(F)cc(F)c5)n4)c3c2)ccc1C1CCNCC1` [Example 176, N-(5-(3-(1-(3,5-difluorobenzyl)-1H-pyrazol-3-yl)-1H-pyrrolo[2,3-b]pyridin-5-yl)-2-(piperidin-4-yl)phenyl)methanesulfonamide], the IC50 was less than 50 nM, the inhibition at 0.1 µM was determined as 86% and the inhibition at 1 µM turned out to be 99%.

On to `COc1cc(-c2cnc3[nH]cc(-c4c(C)nn(Cc5cc(F)cc(F)c5)c4C)c3c2)cnc1N` [Example 177, 5-(3-(1-(3,5-difluorobenzyl)-3,5-dimethyl-1H-pyrazol-4-yl)-1H-pyrrolo[2,3-b]pyridin-5-yl)-3-methoxypyridin-2-amine], for which the IC50 is less than 50 nM, the inhibition at 0.1 µM was found to be 96% and the inhibition at 1 µM was 100%.

On to `COc1cc(-c2cnc3[nH]cc(-c4c(C)nn(Cc5cccc(F)c5)c4C)c3c2)cnc1N` [Example 178, 5-(3-(1-(3-fluorobenzyl)-3,5-dimethyl-1H-pyrazol-4-yl)-1H-pyrrolo[2,3-b]pyridin-5-yl)-3-methoxypyridin-2-amine], for which the IC50 is less than 50 nM, the inhibition at 0.1 µM stood at 94% and the inhibition at 1 µM was 100%.

In the case of `CN1CCN(c2ncc(-c3cnc4[nH]cc(-c5cnn(Cc6cccc(F)c6)c5)c4c3)cc2F)CC1` [Example 179, 5-(5-fluoro-6-(4-methylpiperazin-1-yl)pyridin-3-yl)-3-(1-(3-fluorobenzyl)-1H-pyrazol-4-yl)-1H-pyrrolo[2,3-b]pyridine], the half-inhibitory concentration (IC50) was less than 50 nM, the inhibition at 0.1 µM is 92% and the inhibition at 1 µM was found to be 99%.

For `C[C@@H](O)CN1CCN(c2ncc(-c3cnc4[nH]cc(-c5cnn(Cc6cccc(F)c6)c5)c4c3)cc2F)CC1` [Example 180, (R)-1-(4-(3-fluoro-5-(3-(1-(3-fluorobenzyl)-1H-pyrazol-4-yl)-1H-pyrrolo[2,3-b]pyridin-5-yl)pyridin-2-yl)piperazin-1-yl)propan-2-ol], the IC50 was less than 50 nM, the inhibition at 0.1 µM came to 93% and the inhibition at 1 µM is 100%.

Turning to `NC(=O)CN1CCC(Cc2cccc(-c3cnc4[nH]cc(-c5cnn(Cc6cccc(F)c6)c5)c4c3)c2)CC1` [Example 184, 2-(4-(3-(3-(1-(3-fluorobenzyl)-1H-pyrazol-4-yl)-1H-pyrrolo[2,3-b]pyridin-5-yl)benzyl)piperidin-1-yl)acetamide], the IC50 was less than 50 nM, the inhibition at 0.1 µM came to 92% and the inhibition at 1 µM was found to be 100%.

For the molecule `c1ccc(CCn2cc(-c3c[nH]c4ncc(-c5ccc(N6CCNCC6)cc5)cc34)cn2)cc1` [Example 185, 3-(1-phenethyl-1H-pyrazol-4-yl)-5-(4-(piperazin-1-yl)phenyl)-1H-pyrrolo[2,3-b]pyridine], the inhibition at 0.1 µM was found to be 80% and the inhibition at 1 µM was 86%.

`Cc1nn(Cc2cccc(F)c2)c(C)c1-c1c[nH]c2ncc(-c3cccc(N4CCN(CCO)CC4)c3)cc12` [Example 186, 2-(4-(3-(3-(1-(3-fluorobenzyl)-3,5-dimethyl-1H-pyrazol-4-yl)-1H-pyrrolo[2,3-b]pyridin-5-yl)phenyl)piperazin-1-yl)ethanol]: the IC50 is less than 50 nM, the inhibition at 0.1 µM is 83% and the inhibition at 1 µM came out at 96%.
